These results are taken from patent US6339102B1, “Method and composition for treating and preventing retinal damage” (The United States of America as represented by the …, priority 1999, dated 2002).

Molecules are shown by their SMILES. Where two headings read alike, the source gives them in different places.

In data set [1] the test system is cultured neurons. Nature of the data set: MTT neuroprotection assay in cultured neurons after H2O2 oxidative insult. The conditions noted are these: for % Neuroprotection: 4 h pre-treatment, 50 μM H2O2 30 min, MTT after 24 h, mean±SEM. It is filed as cell-based. The protocol:
In a separate series of experiments, cultured neurons were pre-treated with four different concentrations of DHL with or without 10 mM SPBN for four hours. At the conclusion of the preincubation period, an oxidative insult was applied by adding 50 μM of hydrogen peroxide (H2O2) for an additional 30 min. Medium containing the H2O2 and antioxidants was then removed and Minimum Essential Medium (MEM) was added to the wells for 24 hours. Neuroprotection was then assessed by conducting the calorimetric MTT assay. One way ANOVA with significance of differences between means assessed by Tukey-Kramer Multiple Comparisons test.
Data are depicted as means±SEM (n=8). Significance was determined by one way ANOVA, and differences between the means was assessed by the Tukey-Kramer test. (See table 1).
(Tetrazolium assays rely on reduction of a dye to a coloured formazan, in cell work by metabolically active cells.)

Data set [2] has as its system retinal ganglion cells. The conditions noted are these: 500 ng by intraocular injection; Klocker et al.; cited from earlier work.
The conditions of data set [3]: Aldrich catalog description; cited from earlier work.
The subject of data set [4] is striatal lesions. The conditions noted are these: 100 mg/kg i.p. 30 min prior and q 8 hours for 48 hours after insult; or 300 mg/kg ip repeated; cited from earlier work.
In data set [5] the test system is focal ischemia. The conditions noted are these: rat; temporary model: given 3 hours or even 5 hours after start of recirculation; cited from earlier work.
In data set [6] the test system is traumatic brain injury. Conditions: administered either 15 minutes prior or 30 minutes post injury; preliminary studies; cited from earlier work.
For data set [7] the following is noted: in vivo; cited from earlier work.
The conditions of data set [8]: cited from earlier work.
Data set [9] has as its system cortical contusion. The conditions noted are these: rat; cited from earlier work.
For data set [10], the system named is focal ischemia. The conditions noted are these: initiation of treatment delayed as long as 12 hours; cited from earlier work.
For data set [11], the system named is ferrous chloride. The conditions noted are these: mice, intracerebral lethal injection of ferrous chloride; cited from earlier work.
Data set [12] deals with dissociated retinal cells. Nature of the data set: MTT viability of dissociated retinal cells exposed to NaCN and 2-deoxyglucose (simulated ischemia). The conditions noted are these: NaCN and 2-DG giving approximately 60% toxicity, p<0.004. In kind it is cell-based, rabbit.
For data set [13] the following is noted: in vivo; cited from earlier work. This is another data set of the same source.
The subject of data set [14] is ischemia-perfusion injury. Conditions: rat; cited from earlier work.
Data set [15] deals with ischemia-perfusion injury. The conditions noted are these: gerbil; cited from earlier work.
Data set [16] concerns lesions of striatum. The conditions noted are these: rats; cited from earlier work.

On to `CC(C)(C)[N+]([O-])=Cc1ccccc1S(=O)(=O)O` [SPBN, N-tert-Butyl-α-[2-sulfophenyl]-nitrone], for which the “effect of SPBN on the neuroprotective efficacy of DHL” value in data set [1] (10 mM SPBN, at three of the four DHL concentrations tested) is reported as “significantly increased”. Moreover, the “retinal ganglion cells rescued after axotomy” value in data set [2] is reported as 27%. Besides, the water solubility result in [3] is given as “water-soluble”. Moreover, the “protection against striatal toxin lesions (lesion volume)” value in data set [4] is reported as “protective”.

`CC(C)(C)[N+]([O-])=Cc1ccc(S(=O)(=O)[O-])cc1S(=O)(=O)[O-].[Na+].[Na+]` [NXY-059]: in [5], the “efficacy in temporary and permanent focal ischemia” value is “effective”. In addition, the “volume of necrosis after traumatic brain injury” value in data set [6] is “effective in decreasing volume of necrosis”.

Regarding `CC(C)(C)[N+]([O-])=Cc1ccccc1` [PBN, α-Phenyl-N-tert-butylnitrone], in data set [7], the “blood brain barrier crossing” value is on record as “crosses the blood brain barrier”. In addition, the toxicity entry in data set [8] (in high concentrations) is reported as “somewhat toxic”; in data set [8] (very high doses), “toxicity is a problem”. For the same molecule, the “accumulation of lactate following cortical contusion” value in data set [9] is listed as “attenuate”. In data set [10], the “neuroprotection in rat focal ischemia model” value is given as “neuroprotective”. Also, the “seizures and time to death after ferrous chloride” value in data set [11] was “minimized seizures and delayed time to death”.

As to `O=C(O)CCCC[C@@H](S)CCS` (racemic) [DHL, dihydrolipoic acid], the “protection against damage from NaCN and 2-DG (maximum effect)” value in data set [12] (DHL 0.3 millimolar co-administered) is “approximately 60%”. Also, the Emax in data set [12] (Oryctolagus cuniculus, DHL 0.1 millimolar co-administered, read-out: protection against damage from NaCN and 2-DG (maximum effect)) is approximately 60%. The “% Neuroprotection” value in data set [1] (DHL 3 μM) was 1.31 ± 5.23%; in data set [1] (DHL 10 μM), −3.68 ± 5.14%; in data set [1] (DHL 30 μM), 7.04 ± 7.38%; in [1] (DHL 100 μM) it was 28.48 ± 5.83%.

Regarding `O=C(O)CCCCC1CCSS1` (stereo not drawn) [αLA, Alpha-lipoic acid], the clinical safety entry in data set [13] is reported as “clinically safe”. Moreover, the “neuroprotection against ischemia-perfusion injury” value in data set [14] and in [15] was “neuro-protective” throughout. Besides, in data set [16], the “efficacy against NMDA and malonic acid lesions of striatum” value is reported as “effective”.
